Results on three compounds are retold here after patent US8617524B2, “Depigmenting keratin materials utilizing dithiolane compounds” (L'Oreal, priority 2008, dated 2013).

Data set [1] concerns co-culture of keratinocytes and melanocytes. In words: Activity on constitutive melanogenesis (inhibition of melanin synthesis; thiouracil/leucine incorporation ratio). The class given is cell-based. The note with it: for Maximum Activity: inhibitory activity on melanin synthesis, ratio of incorporation of thiouracil to leucine, relative to 100% of the control without test compound. On the procedure: (§1) The modulatory effect of the compounds on constitutive melanogenesis was measured according to the method described in FR-A-2,734,825 and also in the article by Schmidt et al., Anal. Biochem., 235(2), 1996, pp. 113-118. This test is performed on a co-culture of keratinocytes and melanocytes.
For the test compounds, the inhibitory activity on melanin synthesis was determined, by estimating the ratio of incorporation of thiouracil to the incorporation of leucine, relative to 100% of the control (the control corresponds to the test performed without test compound).

Data set [2] shares this test system. As to the kind of experiment: Cytotoxicity on a co-culture. It counts as cell-based. On the procedure: as §1

Turning to `CC1(C(N)=O)CSSC1` [Compound 2, 4-methyl-1,2-dithiolane-4-carboxamide], the “depigmenting action compared with arbutin and kojic acid” value in data set [1] (conclusion in words from the table of Example 25) was “greater depigmenting action than arbutin and kojic acid”. Further, the “Maximum Activity” value in data set [1] was −76%. The “Cytotoxicity on a co-culture” value in data set [2] is 100 µM.
On to `O=c1cc(CO)occ1O` [Kojic acid], for which the “Maximum Activity” value in data set [1] is on record as −30%. In addition, the “Cytotoxicity on a co-culture” value in data set [2] worked out at 100 µM.
Consider `OC[C@H]1O[C@@H](Oc2ccc(O)cc2)[C@H](O)[C@@H](O)[C@@H]1O` [Arbutin], for which the “Maximum Activity” value in data set [1] is listed as −44%. The “Cytotoxicity on a co-culture” value in data set [2] was “Non-cytotoxic”.
